Measured values taken from the RepoRT retention time repository (doi:10.1016/j.aca.2011.12.065).
Each block holds one molecule with its values, some of them ahead of it.

Key:
[1] = RP, Waters ACQUITY UPLC HSS T3, 100 × 2.1 mm, 1.8 µm; A: water + 0.1% formic acid, pH 3; B: 30% methanol + 70% acetonitrile + 0.1% formic acid, pH 3; gradient (min/%B) 0.0/5 1.0/8 2.0/15 3.0/40 4.0/70 4.5/100 5.0/100 6.4/100 6.6/5.0 6.8/5.0 7.0/5.0; details: stereoisomer not certain
[2] = RP, Waters ACQUITY UPLC BEH C18, 100 × 2.1 mm, 1.7 µm; A: water + 0.1% formic acid, pH 3; B: 80% acetonitrile + 20% acetone + 0.1% formic acid, pH 3; gradient (min/%B) 0/0 6/100; details: stereoisomer not certain

LC retention time [1]: 0.51 min | LC retention time [2]: 0.657 min
Compound: NC(CCCC(=O)O)C(=O)O (racemic) [dl-2-aminoadipic acid]

LC retention time [1]: 3.52 min | LC retention time [2]: 2.13 min
Compound: O=C(O)C(O)Cc1c[nH]c2ccccc12 (racemic) [dl-3-indolelactic acid]

LC retention time [1]: 0.793 min | LC retention time [2]: 1.26 min
Compound: CN1C(=O)CCC1c1cccnc1 (single isomer, unassigned; (-)) [(-)-Cotinine]

LC retention time [1]: 1.18 min | LC retention time [2]: 1.28 min
Compound: Cc1cn(C2OC(CO)C(O)C2O)c(=O)nc1N (centres undefined) [5-methylcytidine]

LC retention time [1]: 3.4 min | LC retention time [2]: 1.81 min
Compound: COc1cc2c(CCNC(C)=O)c[nH]c2cc1O [6-hydroxymelatonin]

LC retention time [1]: 0.688 min | LC retention time [2]: 1.17 min
Compound: Cn1c[n+](C2OC(CO)C(O)C2O)c2nc(N)[nH]c(=O)c21 (centres undefined) [7-methylguanosine]

LC retention time [1]: 2.66 min | LC retention time [2]: 1.54 min
Compound: O=C(O)C(O)Cc1ccc(O)cc1 (stereo not drawn) [(DL)-p-hydroxyphenyllactic acid]

The next lines start with the molecule.

Compound: O=c1[nH]cc(C2OC(CO)C(O)C2O)c(=O)[nH]1 (centres undefined)
LC retention time [1]: 0.743 min | LC retention time [2]: 1.16 min

Compound: NC(CCCNC1=NCC(=O)N1)C(=O)O (centres undefined)
LC retention time [1]: 0.459 min | LC retention time [2]: 0.561 min

Compound: CC1NC(=NCCCC(N)C(=O)O)NC1=O (centres undefined)
LC retention time [1]: 0.484 min | LC retention time [2]: 0.585 min

Compound: Nc1c(O)cccc1C(=O)CC(N)C(=O)O (racemic) [3-hydroxy-dl-kynurenine]
LC retention time [1]: 0.786 min | LC retention time [2]: 1.03 min

Compound: Cn1c(=O)[nH]c2ncn(C)c2c1=O [1,7-dimethylxanthine]
LC retention time [1]: 2.56 min | LC retention time [2]: 1.45 min

Compound: Cn1cnc(C[C@H](N)C(=O)O)c1 [1-Methyl-L-Histidine]
LC retention time [1]: 0.425 min | LC retention time [2]: 0.531 min

Compound: Cn1cnc2c(ncn2C2OC(CO)C(O)C2O)c1=N (centres undefined) [1-methyladenosine]
LC retention time [1]: 1.63 min | LC retention time [2]: 1.3 min

Compound: Cn1c(=O)[nH]c2[nH]c(=O)[nH]c2c1=O [1-methyluric acid]
LC retention time [1]: 1.27 min | LC retention time [2]: 1.28 min

Compound: NC(CCCC(N)C(=O)O)C(=O)O (centres undefined) [2,6-diaminopimelic acid]
LC retention time [1]: 0.44 min | LC retention time [2]: 0.543 min

Compound: Nc1ccn(C2OC(CO)C(O)C2O)c(=S)n1 (centres undefined) [2-thiocytidine dihydrate]
LC retention time [1]: 0.619 min | LC retention time [2]: 0.986 min

Compound: CC(C)(O)CC(=O)O [3-hydroxy-3-methyl butanoic acid]
LC retention time [1]: 1.63 min | LC retention time [2]: 1.44 min

Compound: Cn1c(=N)ccn(C2OC(CO)C(O)C2O)c1=O (centres undefined) [3-methylcytidine methosulfate]
LC retention time [1]: 0.619 min | LC retention time [2]: 0.986 min

Compound: Cn1c(=O)[nH]c(=O)c2[nH]cnc21 [3-methylxanthine]
LC retention time [1]: 1.45 min | LC retention time [2]: 1.28 min

Compound: CC(=O)Nc1ccc(C(=O)O)cc1 [4-acetamidobenzoic acid]
LC retention time [1]: 3.23 min | LC retention time [2]: 1.71 min

Compound: O=Cc1ccc(O)cc1 [4-hydroxybenzaldehyde]
LC retention time [1]: 3.3 min | LC retention time [2]: 1.91 min
